Results from patent US7807701B2, “Dibenzylamine compounds and pharmaceutical use thereof” (Japan Tobacco Inc., priority 2002, dated 2010).

How the values were obtained:
CETP [1] = assay: Inhibitory effect exo vivo on CETP activity in total plasma of normal hamster; conditions: single oral dose 3 mg/kg, blood taken 4 hr after administration, average values
Experimental: Potassium bromide (KBr) was added to plasma (40 mL) of healthy subject and the mixture was adjusted to have a specific density d=1.125 g/mL. The mixture was subjected to density gradient centrifugation (227,000×g, 4° C., 17 hr) and a fraction showing a specific density of d>1.125 g/mL (HDL3 fraction) was harvested. The obtained fraction was dialyzed against PBS solution [10 mmol/L Na2HPO4; 10 mmol/L NaH2PO4; 0.15 mol/L NaCl; […] (pH 7.4)]. Then, tritium-labeled cholesterol (37 MBq) was dissolved in 95% ethanol, gradually added to the above-mentioned HDL3 fraction with stirring and incubated at 37° C. for 18 hr. [By this operation, tritium-labeled cholesterol was esterified by the action of lecithin acyl transferase (LCAT) present on the HDL3 surface and taken up into HDL3 as tritium-labeled cholesteryl ester ([^3H]CE)]. After incubation, KBr was added, the mixture was adjusted to have a specific density d=1.21 g/mL, subjected to density gradient centrifugation (227,000×g, 4° C., 17 hr) and a fraction of specific density […] was harvested. The obtained fraction was dialyzed against the aforementioned PBS solution to give HDL3 incorporating [^3H]CE ([^3H]CE-HDL3, specific density: 1.125<d<1.21, specific activity: 10,000 dpm/μL), which was used as a donor lipoprotein.
(§1) The compound of the present invention was suspended in 0.5% methyl cellulose solution and orally administered once to a healthy hamster with a plastic gavage needle. Blood was taken at 2 or 4 hr after the administration and CETP activity in plasma was measured according to the following method.
The donor lipoprotein obtained above was added to hamster plasma (100 μL) to prepare [^3H]CE-HDL3-containing plasma (ca. 1,000 dpm/μL). The [^3H]CE-HDL3-containing plasma was dispensed to two microtubes by 25 μL each, and one was incubated at 37° C. and the other was incubated at 4° C. for 4 hr each. After ice-cooling, TBS solution (50 μl) containing 1 mol/L magnesium chloride and 2% dextran sulfate was added to each microtube and the mixture was thoroughly stirred. After keeping at […] for 30 min, the mixture was centrifuged (10,000×g, 4° C., 20 min), and the radioactivity in the obtained supernatant (HDL fraction) was measured with a liquid scintillation counter. The radioactivity of the [^3H]CE-HDL3-containing plasma was measured with a liquid scintillation counter, and taken as the total radioactivity. The transfer rate of [^3H]CE was calculated from the following formula using the total radioactivity (Total count), radioactivity by 37° C. incubation (37° C. count) and radioactivity by 4° C. incubation (4° C. count) of the sample of each individual and taken as the CETP activity. CETP activity(transfer ratio (%))={[(4° C. count)−(37° C. count)]/(Total count)}×100
The CETP activity inhibitory ratio of each compound administration group based on the CETP activity of the solvent administration group as 100% was calculated from the following formula and expressed in %.
CETP activity inhibitory ratio (%)=100−[(CETP activity of each compound administration group)/(CETP activity of solvent administration group)×100]

CETP [2] = target: T1, CETP (Homo sapiens, UniProt P11597); assay: Inhibitory effect in vitro on CETP activity in total plasma; assay type: biochemical; conditions: plasma of healthy subject with [3H]CE-HDL3, 37° C., 4 hr; average values
T1 construct: The donor lipoprotein obtained above was added to plasma of healthy subject; from tissue; host or cells: whole plasma of healthy subject
T1 sequence (P11597 18-493): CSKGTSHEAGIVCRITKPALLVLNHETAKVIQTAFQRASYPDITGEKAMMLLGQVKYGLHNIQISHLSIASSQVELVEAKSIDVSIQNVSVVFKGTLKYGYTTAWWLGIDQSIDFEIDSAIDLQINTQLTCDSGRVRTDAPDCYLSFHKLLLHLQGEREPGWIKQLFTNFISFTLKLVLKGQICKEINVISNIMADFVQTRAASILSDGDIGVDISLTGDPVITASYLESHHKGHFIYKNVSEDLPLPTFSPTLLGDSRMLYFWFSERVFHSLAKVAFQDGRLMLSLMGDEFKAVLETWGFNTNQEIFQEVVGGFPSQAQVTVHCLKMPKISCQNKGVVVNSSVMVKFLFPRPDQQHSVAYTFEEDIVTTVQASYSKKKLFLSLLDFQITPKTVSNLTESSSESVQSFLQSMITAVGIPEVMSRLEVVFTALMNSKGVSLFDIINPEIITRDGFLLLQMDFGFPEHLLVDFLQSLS
Procedure, shortened: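 Healthy-donor plasma spiked with [3H]cholesteryl ester-labelled HDL3 (1,000 dpm/μL) was incubated with compound (DMF vehicle) for 4 hr at 37 °C or 4 °C. HDL was separated by MgCl2/dextran sulfate precipitation and supernatant radioactivity counted. IC50 is the concentration giving 50% inhibition of CETP activity.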

HDL cholesterol = assay: Blood HDL cholesterol increasing effect in normal hamster; assay type: in vivo; conditions: single oral dose 3 mg/kg, versus solvent group, average values; for HDL cholesterol increase content (%) 4 (hr later): 4 hr after administration; for HDL cholesterol increase content (%) 8 (hr later): 8 hr after administration
Experimental: as §1
To the plasma (40 μL) obtained from the above-mentioned animal at 4 or 8 hr after the administration was added 15% polyethylene glycol solution (40 μL) and the mixture was thoroughly stirred. After keeping at room temperature for 10 min, the mixture was centrifuged (10,000×g, 4° C., 20 min) and the cholesterol content (HDL cholesterol content) of the obtained supernatant (HDL fraction) was measured. The increase ratio of the HDL cholesterol content of each compound administration group when the HDL cholesterol content of the solvent administration group as 100% was calculated from the following formula and expressed in %. HDL cholesterol increase ratio(%)=[(HDL cholesterol content of each compound administration group/HDL cholesterol content of solvent administration group)×100]−100

[3] = Concomitant use test with simvastatin in rabbits on high cholesterol food; assay type: in vivo, Japanese white rabbits; conditions: high cholesterol food for 15 days with simvastatin (0.002%) and/or Example 168 (0.2%), control group = 100%; for HDL3 cholesterol content (%): plasma HDL3 fraction; for ApoA-I content (%): plasma
Excerpt: For the experiment, 10-week-old male Japanese white rabbits (manufactured by KITAYAMA LABES Co., Ltd.) were used. The animal was acclimated on normal food (RC-4, manufactured by Oriental Bio-Service Co.) and fasted for 24 hr and a high cholesterol food (0.25% cholesterol-added RC-4, manufactured by Oriental Bio-Service Co.) was given by 100 g/day per rabbit (preliminary feeding) for 3 days. On the next day of day 3 of preliminary feeding, blood was taken from the auricular artery before feeding, and the animals were grouped by 6 rabbits per group based on the parameters (HDL cholesterol content, total cholesterol content, triglyceride content) of plasma and body weight.
Foods were prepared (manufactured by Oriental Bio-Service Co.) by adding simvastatin (0.002%), compound (0.2%) of Example 168, or simvastatin (0.002%)+compound (0.2%) of Example 168 to a high cholesterol food, and each food was given to the grouped animals by 100 g/day per rabbit for 15 days. At 8 hr after feeding on day 15, the total blood was taken from the carotid artery under anesthesia, HDL cholesterol content, total cholesterol content and ApoA-I content in plasma were measured. The arteriosclerosis index was calculated from [(total cholesterol content-HDL cholesterol content)/HDL cholesterol content]. Furthermore, the HDL3 fraction was separated from plasma by ultracentrifugation and the cholesterol content of the fraction was measured. In Table, arteriosclerotic index, ApoA-1 content and HDL3 cholesterol content are shown based on the value of the control group as 100%.

Structure (SMILES) | CETP activity (%) 4 (hr later) (CETP [1]) [%] | IC50 (CETP [2]) [µM] | HDL cholesterol increase content (%) 4 (hr later) (HDL cholesterol) [%] | HDL cholesterol increase content (%) 8 (hr later) (HDL cholesterol) [%] | Arteriosclerotic index (%) [3] [%] | HDL3 cholesterol content (%) [3] [%] | ApoA-I content (%) [3] [%]
CCN(C[C@H]1CC[C@H](CC(=O)O)CC1)c1cc(C(F)(F)F)c(C)cc1CN(Cc1cc(C(F)(F)F)cc(C(F)(F)F)c1)c1nnn(C)n1.Cl [Example 143, trans-(4-{[N-(2-{[N′-[3,5-bis(trifluoromethyl)benzyl]-N′-(2-methyl-2H-tetrazol-5-yl)amino]methyl}-4-methyl-5-trifluoromethylphenyl)-N-ethylamino]methyl}cyclohexyl)acetic acid hydrochloride] | 42.2 | 0.1 | 17.0 | 21.3 | – | – | –
CCN(C[C@H]1CC[C@H](CC(=O)O)CC1)c1ccc(C(F)(F)F)cc1CN(Cc1cc(C(F)(F)F)cc(C(F)(F)F)c1)c1nnn(C)n1.Cl [Example 118, trans-(4-{[N-(2-{[N′-[3,5-bis(trifluoromethyl)benzyl]-N′-(2-methyl-2H-tetrazol-5-yl)amino]methyl}-4-trifluoromethylphenyl)-N-ethylamino]methyl}cyclohexyl)acetic acid hydrochloride] | 55.4 | 0.09 | 21.1 | 31.7 | – | – | –
CCN(C[C@H]1CC[C@H](CC(=O)O)CC1)c1ccc(OC(F)(F)F)cc1CN(Cc1cc(C(F)(F)F)cc(C(F)(F)F)c1)c1nnn(C)n1.Cl [Example 115, trans-(4-{[N-(2-{[N′-[3,5-bis(trifluoromethyl)benzyl]-N′-(2-methyl-2H-tetrazol-5-yl)amino]methyl}-4-trifluoromethoxyphenyl)-N-ethylamino]methyl}cyclohexyl)acetic acid hydrochloride] | 62.1 | 0.09 | 23.3 | 30.7 | – | – | –
CCCN(C[C@H]1CC[C@H](CC(=O)O)CC1)c1cc(C)c(C(F)(F)F)cc1CN(Cc1cc(C(F)(F)F)cc(C(F)(F)F)c1)c1nnn(C)n1.Cl [Example 157, trans-(4-{[N-(2-{[N′-[3,5-bis(trifluoromethyl)benzyl]-N′-(2-methyl-2H-tetrazol-5-yl)amino]methyl}-5-methyl-4-trifluoromethylphenyl)-N-propylamino]methyl}cyclohexyl)acetic acid hydrochloride] | 80.4 | – | 17.9 | 27.1 | – | – | –
CCC(C)(C)C(=O)O[C@H]1C[C@@H](C)C=C2C=C[C@H](C)[C@H](CC[C@@H]3C[C@@H](O)CC(=O)O3)[C@H]21 [simvastatin, reference compound] | – | – | – | – | 53 | 128 | 114
CCN(C[C@H]1CC[C@H](CC(=O)O)CC1)c1cc(C)c(C(F)(F)F)cc1CN(Cc1cc(C(F)(F)F)cc(C(F)(F)F)c1)c1nnn(C)n1 [Example 168, trans-(4-{[N-(2-{[N′-[3,5-bis(trifluoromethyl)benzyl]-N′-(2-methyl-2H-tetrazol-5-yl)amino]methyl}-5-methyl-4-trifluoromethylphenyl)-N-ethylamino]methyl}cyclohexyl)acetic acid methanesulfonate] | – | – | – | – | 82 | 141 | 114
CCN(C[C@H]1CC[C@H](CC(=O)O)CC1)c1cc(C)c(C(F)(F)F)cc1CN(Cc1cc(C(F)(F)F)cc(C(F)(F)F)c1)c1nnn(C)n1.Cl [Example 142, trans-(4-{[N-(2-{[N′-[3,5-bis(trifluoromethyl)benzyl]-N′-(2-methyl-2H-tetrazol-5-yl)amino]methyl}-5-methyl-4-trifluoromethylphenyl)-N-ethylamino]methyl}cyclohexyl)acetic acid hydrochloride] | 71.6 | 0.06 | 20.3 | 31.9 | – | – | –
